In US20120225909A1, “INDAZOLE ANALOG” (priority 2009, published 2012):

Legend:
[1] = test system: Male C57BL/6 Cr mice; assay: Test Case 10: mouse piloerection test; type: in vivo
[2] = test system: pentobarbital-anesthetized rats; assay: Test Case 9: effects on the blood pressure and heart rate in pentobarbital-anesthetized rats; type: in vivo, rat
Experimental: Effects on the blood pressure and heart rate in pentobarbital-anesthetized rats
The blood pressure and heart rate of rats under pentobarbital anesthesia are measured, and the effects of rapid intravenous administration of the test compound on the blood pressure and heart rate can be studied. After anesthetizing male SD rats (Japan SLC) by intraperitoneal administration of 50 mg/kg of pentobarbital sodium (Tokyo Chemical Industry Co., Ltd.), 25 mg/kg of pentobarbital sodium is administered subcutaneously as maintenance anesthesia. The left femoral vein is exposed and stripped, and a SP10 polyethylene tube filled with saline (connected to a three-way stopcock via a ¼ venous needle) is inserted and left in place in the vein.
The inside of the left thigh is cut, and the femoral artery is exposed and stripped. A polyethylene tube filled with heparinized physiological saline solution (SP31, connected to a three-way stopcock via a Terumo injection needle 22G) is inserted and connected to a pressure transducer. The blood pressure is measured from the pressure transducer via a strain pressure amplifier (AP-641G, Nihon Kohden). The heart rate is measured with the pulse wave of the blood pressure as a trigger via a heart rate counter (AT-601G, Nihon Kohden). The blood pressure, mean blood pressure, and heart rate are output to a recorder and recorded. Furthermore, the mean blood pressure is recorded via the strain pressure amplifier (AP-641G) using the formula {[…]}.
Specifically, 3 mg/mL of test compound is administered rapidly at a volume of 1 mL/kg. The relative value (%) of the values at each point in time versus the mean blood pressure and heart rate before beginning administration are determined for each individual, and the mean±standard deviation of the relative value (%) at the time of the maximum change in each parameter is determined.

[3] = molecular target: T1, human β3-adrenergic receptor (Homo sapiens, UniProt P13945); assay: Test Case 1-B: human β3-adrenergic receptor agonist activity (cAMP-Screen, 96-well); type: cell-based; conditions: for Emax: 0.5 h, read-out: β3 receptor I.A.; for EC50 / β3 receptor I.A.: Test Case 1-B; for EC50: CHO cells, cAMP; for β3 receptor I.A.: maximum response of isoproterenol = 100%
T1 construct: A full-length human β3 gene is obtained from a human genomic library (made by Clontech) using this as the probe; expressed in transfected cells; host or cells: CHO (Chinese hamster ovary) cells, pcDNA3
T1 sequence (P13945 whole entry): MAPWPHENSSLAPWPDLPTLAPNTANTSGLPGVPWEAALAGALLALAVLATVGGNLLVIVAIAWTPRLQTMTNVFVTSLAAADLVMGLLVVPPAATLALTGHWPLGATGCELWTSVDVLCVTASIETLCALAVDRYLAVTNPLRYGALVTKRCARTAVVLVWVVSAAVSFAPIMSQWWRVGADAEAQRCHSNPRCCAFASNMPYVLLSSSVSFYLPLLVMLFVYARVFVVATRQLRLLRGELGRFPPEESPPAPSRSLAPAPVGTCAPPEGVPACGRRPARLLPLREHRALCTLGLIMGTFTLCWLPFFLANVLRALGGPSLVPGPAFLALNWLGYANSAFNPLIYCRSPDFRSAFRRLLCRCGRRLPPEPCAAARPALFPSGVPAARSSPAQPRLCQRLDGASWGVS
Procedure, shortened: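 CHO cells stably transfected with full-length human β3 gene, serum-starved 15 min, then exposed to serially diluted compound in Ham's F-12 with 100 mmol/L HEPES and 1 mmol/L IBMX (diluent concentrations) for 30 min. Cells lysed 30 min at 37 °C; cAMP quantified by cAMP-Screen immunoassay.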

[4] = molecular target: T2, human β2-adrenergic receptor (Homo sapiens, UniProt P07550); assay: Test Case 3-B: human β2-adrenergic receptor agonist activity; type: cell-based; conditions: for Emax: read-out: β2 receptor I.A.; for β2 receptor I.A.: Test Case 3-B, maximum response of isoproterenol = 100%
T2 construct: expressed in transfected cells; host or cells: CHO (Chinese hamster ovary) cells, pcDNA3
T2 sequence (P07550 whole entry): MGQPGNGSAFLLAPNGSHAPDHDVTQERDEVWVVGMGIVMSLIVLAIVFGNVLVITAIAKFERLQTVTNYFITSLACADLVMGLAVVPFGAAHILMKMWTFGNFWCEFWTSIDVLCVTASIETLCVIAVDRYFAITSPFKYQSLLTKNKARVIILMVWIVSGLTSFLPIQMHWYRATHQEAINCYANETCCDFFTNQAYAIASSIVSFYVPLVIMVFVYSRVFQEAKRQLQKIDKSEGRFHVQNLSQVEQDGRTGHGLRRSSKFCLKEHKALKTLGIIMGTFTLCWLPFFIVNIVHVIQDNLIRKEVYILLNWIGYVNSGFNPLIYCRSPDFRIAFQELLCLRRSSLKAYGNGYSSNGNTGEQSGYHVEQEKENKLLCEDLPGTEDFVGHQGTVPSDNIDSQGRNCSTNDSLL
Experimental: (§1) Measurement of Human β2-Adrenergic Receptor Agonist Activity
The human β2-adrenergic receptor agonist activity is measured by the same method as in Test Case 1-B using CHO (Chinese hamster ovary) cells transfected by a human β2 gene inserted in pcDNA3 (Invitrogen).

[5] = molecular target: T2, human β2-adrenergic receptor; assay: Test Case 3-C: human β2-adrenergic receptor agonist activity (Cerep cellular functional GPCR, beta 2); type: cell-based; conditions: concentration 10 μM, isoproterenol = 100%
From the text: as §1

[6] = molecular target: T3, human α1A-adrenergic receptor (Homo sapiens, UniProt P35348); assay: Test Case 4-B: human α1A-adrenergic receptor agonist activity (Cerep cellular functional GPCR, alpha 1A); type: cell-based; set-up: expressed in transfected cells; conditions: concentration 10 μM; for α1 receptor % of Control Agonist Response, Control; Epinephrine: epinephrine = 100%; for α1 receptor % of Control Agonist Response, Control; Norepinephrine: norepinephrine = 100%
T3 sequence (P35348 1-466): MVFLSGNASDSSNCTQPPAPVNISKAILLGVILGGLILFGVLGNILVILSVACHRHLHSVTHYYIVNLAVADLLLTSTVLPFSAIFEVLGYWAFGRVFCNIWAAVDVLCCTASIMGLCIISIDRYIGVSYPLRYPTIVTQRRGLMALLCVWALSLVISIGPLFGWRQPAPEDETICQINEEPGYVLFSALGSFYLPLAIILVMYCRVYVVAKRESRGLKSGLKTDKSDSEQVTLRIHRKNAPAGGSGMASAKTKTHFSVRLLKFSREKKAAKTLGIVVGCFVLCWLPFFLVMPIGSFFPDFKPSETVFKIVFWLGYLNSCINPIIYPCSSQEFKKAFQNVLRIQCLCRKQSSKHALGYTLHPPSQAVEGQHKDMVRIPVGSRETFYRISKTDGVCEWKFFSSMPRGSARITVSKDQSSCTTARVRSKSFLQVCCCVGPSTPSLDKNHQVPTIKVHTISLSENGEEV
From the text: Measurement of Human α1A-Adrenergic Receptor Agonist Activity
The human α1A-adrenergic receptor agonist activity] can be measured by […] Functional GPCR·Gs, alpha 1A (Ref. 722-36a) listed on p. 52 of the Cerep 2008 CATALOG IN VITRO PHARMACOLOGY & ADME-TOX.

[7] = molecular target: T4, human β1-adrenergic receptor (Homo sapiens, UniProt P08588); assay: Test Case 2-C: human β1-adrenergic receptor agonist activity (Cerep cellular functional GPCR, beta 1); type: cell-based; conditions: concentration 10 μM, isoproterenol = 100%
T4 construct: expressed in transfected cells; host or cells: CHO (Chinese hamster ovary) cells, pcDNA3
T4 sequence (P08588 whole entry): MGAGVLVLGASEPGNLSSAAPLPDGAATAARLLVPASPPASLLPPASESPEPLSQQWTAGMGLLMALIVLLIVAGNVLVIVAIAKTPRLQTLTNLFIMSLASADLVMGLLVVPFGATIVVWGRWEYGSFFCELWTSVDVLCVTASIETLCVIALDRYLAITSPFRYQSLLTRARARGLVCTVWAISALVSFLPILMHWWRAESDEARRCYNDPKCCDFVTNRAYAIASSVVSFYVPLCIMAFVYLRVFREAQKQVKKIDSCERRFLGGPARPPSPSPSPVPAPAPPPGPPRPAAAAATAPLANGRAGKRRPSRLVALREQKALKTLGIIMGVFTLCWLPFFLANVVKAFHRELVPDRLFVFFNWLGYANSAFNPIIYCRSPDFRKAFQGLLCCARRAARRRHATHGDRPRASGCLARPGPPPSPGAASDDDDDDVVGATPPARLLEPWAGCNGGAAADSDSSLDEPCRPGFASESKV
From the text: (§2) Measurement of Human β1-Adrenergic Receptor Agonist Activity

[8] = molecular target: T1, human β3-adrenergic receptor; assay: Test Case 1-A: human β3-adrenergic receptor agonist activity (cAMP-EIA, 24-well); type: cell-based; conditions: maximum response of isoproterenol = 100%
Experimental: Measurement of Human β3-Adrenergic Receptor Agonist Activity
The human β3-adrenergic receptor agonist activity is measured using CHO (Chinese hamster ovary) cells transfected by a human β3 gene inserted in pcDNA3 (Invitrogen). […] A full-length human β3 gene is obtained from a human genomic library (made by Clontech) using this as the probe. These cells are cultured in Ham's F-12 medium containing 10% fetal calf serum and 400 μg/mL genectin (Invitrogen). These cells are sown in 24-well plates to make 1×10^5 cells/well. After culturing for approximately 20 hours, they are allowed to stand for two hours in serum-free Ham's F-12 medium. […] After culturing for 30 minutes, the medium is removed, and 0.1 mL of 1 N NaOH is added and allowed to stand for 20 minutes. A quantity of 0.1 mL of 1 N acetic acid is added. After stirring, centrifugation is performed, and cAMP is assayed using a cAMP-EIA kit (made by Cayman).

[9] = test system: common marmoset isolated bladder smooth muscle; assay: Test Case 7: common marmoset isolated bladder smooth muscle relaxation test; conditions: KCl 40 mmol/L contracted marmoset bladder, papaverine 10^−4 mol/L relaxation = 100%
Experimental: Common Marmoset Isolated Bladder Smooth Muscle Relaxation Test
After sacrificing common marmosets (Japan CLEA) by exsanguination, they are laparotomized and the urinary bladder is removed. […] The specimens are loaded with one gram of resting tension and stabilized for 30 or more minutes. After the resting tension of the specimen has stabilized, a final concentration of 40 mmol/L of KCl is added repeatedly, and it is confirmed that the contraction in response to KCl has basically become constant. […] Taking that relaxation response as 100%, the relaxation rate (%) at test compound concentrations of […] is calculated.

[10] = molecular target: T4, human β1-adrenergic receptor; assay: Test Case 2-B: human β1-adrenergic receptor agonist activity; type: cell-based; conditions: for β1 receptor I.A.: Test Case 2-B, maximum response of isoproterenol = 100%
Experimental: as §2
The human β1-adrenergic receptor agonist activity is measured by the same method as in Test Case 1-B using CHO (Chinese hamster ovary) cells transfected by a human β1 gene inserted in pcDNA3 (Invitrogen).

[11] = molecular target: T3, human α1A-adrenergic receptor; assay: Test Case 4-A: human α1A-adrenergic receptor agonist activity (HEK293, Ca flux, Fura-2); type: cell-based; set-up: expressed in transfected cells; host or cells: HEK293 cells, pcDNA3.1; conditions: for α1A receptor I.A.: Test Case 4-A, maximum response of norepinephrine = 100%, Table 4
Procedure, shortened: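 Fura-2AM-loaded HEK293 cells transfected with human α1A were preincubated for 180 s. Compound (sample plate 10^−5 to 10^−12 M) was added after ~30 s of 340/380 nm excitation ratio reading (500 nm emission, 2-s intervals), followed by 270 s more reading. Ca flux is the peak height: maximum ratio after addition minus the pre-addition ratio.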

[12] = 10 mg/kg i.v., n=4, observation time 5 min, Score 0
[13] = 10 mg/kg i.v., n=4, observation time 15 min, Score 0
[14] = 10 mg/kg i.v., n=4, observation time 30 min, Score 0
[15] = 10 mg/kg i.v., n=4, observation time 60 min, Score 0
[16] = anesthetized male SD rats, 3 mg/kg intravenous over 30 seconds, maximum change, mean±standard deviation

Compound | number of experimental animals matching Score 0 (no piloerection) [1, 12] | number of experimental animals matching Score 0 (no piloerection) [1, 13] | number of experimental animals matching Score 0 (no piloerection) [1, 14] | number of experimental animals matching Score 0 (no piloerection) [1, 15] | increase in MBP (%) [2, 16] [%] | Emax [3] [%] | EC50 [3] [nM] | Emax [4] [%] | β2 receptor % of Control Agonist Response [5] [%] | α1 receptor % of Control Agonist Response, Control; Epinephrine [6] [%] | α1 receptor % of Control Agonist Response, Control; Norepinephrine [6] [%] | β1 receptor % of Control Agonist Response [7] [%] | β3 receptor I.A. [3] [%] | further results
CCc1n[nH]c2cc(OCCNC[C@H](O)c3cccc(NS(=O)(=O)c4cnn(C)c4)c3)ccc12 [ex135, (R)-N-(3-(2-(2-(3-ethylindazol-6-yloxy)ethylamino)-1-hydroxyethyl)phenyl)-1-methylpyrazole-4-sulfonamide] | 4 | 4 | 4 | 4 | 5.6 ± 1.2 | 105 | 29 | 7 | 1.3 | 0 | 0 | 3.7 | – | –
CCc1n[nH]c2cc(OCCNC[C@H](O)c3cccc(NS(=O)(=O)c4cn[nH]c4)c3)ccc12 [ex149] | 4 | 4 | 4 | 4 | 2.1 ± 1.9 | 100 | 12 | 0 | 0.2 | 8.5 | 7.3 | 5.2 | – | –
CC(C)NCC(O)c1ccc(O)c(O)c1 (stereo not shown) [isoproterenol, reference compound] | – | – | – | – | – | – | – | – | – | – | – | – | 100 | β3 receptor I.A. [8]: 100%; relaxant activity (%) 10^−4M ([9]; 10^−4 M): 54.4%; relaxant activity (%) 10^−5M ([9]; 10^−5 M): 50.6%
COc1n[nH]c2cc(OCCNC[C@H](O)c3cccc(NS(=O)(=O)c4cccnc4)c3)ccc12 [ex44, (R)-N-(3-(1-hydroxy-2-(2-(3-methoxyindazol-6-yloxy)-ethylamino)ethyl)phenyl)py-ridine-3-sulfonamide] | – | – | – | – | – | – | 13 | – | – | – | – | – | 58 | number of experimental animals matching Score 0 (no piloerection) ([1]; in vivo, iv, 10 mg/kg): 4; increase in MBP (%) ([2]; rat, in vivo, iv, 3 mg/kg): 5.7 ± 3.0%; β2 receptor I.A. [4]: 5%; β1 receptor I.A. [10]: 9%; α1A receptor I.A. [11]: 0%
COc1n[nH]c2cc(OCCNC[C@H](O)c3cccc(NS(=O)(=O)c4cccs4)c3)ccc12 [ex45, (R)-N-(3-(1-hydroxy-2-(2-(3-methoxyindazol-6-yloxy)-ethylamino)ethyl)phenyl)thio-phene-2-sulfonamide] | – | – | – | – | – | – | 2.4 | – | – | – | – | – | 80 | number of experimental animals matching Score 0 (no piloerection) ([1]; in vivo, iv, 10 mg/kg): 1; increase in MBP (%) ([2]; rat, in vivo, iv, 3 mg/kg): 3.9 ± 2.1%; β2 receptor I.A. [4]: 2%; β1 receptor I.A. [10]: 9%; α1A receptor I.A. [11]: 0%
O=S(=O)(Nc1cccc([C@@H](O)CNCCOc2ccc3c(OC(F)F)n[nH]c3c2)c1)c1cn[nH]c1 [ex113, (R)-N-(3-(2-(2-(3-(difluoromethoxy)-indazol-6-yloxy)ethylamino)-1-hydroxyethyl)phenyl)pyrazole-4-sulfonamide] | 4 | 4 | 4 | 4 | 3.3 ± 1.7 | 108 | 22 | 3 | 0.2 | 6.9 | 6.0 | 3.7 | – | –
Cc1n[nH]c2cc(OCCNC[C@H](O)c3cccc(NS(=O)(=O)c4cnn(C)c4)c3)ccc12 [ex79, (R)-N-(3-(1-hydroxy-2-(2-(3-methylindazol-6-yloxy)ethylamino)ethyl)phenyl)-1-methyl-pyrazole-4-sulfonamide] | 3 | 3 | 3 | 4 | 4.2 ± 1.8 | 84 | 54 | 7 | – | – | – | – | – | number of experimental animals matching Score 0.5 ([1]; 10 mg/kg i.v., n=4, observation time 5 min): 1; number of experimental animals matching Score 0.5 ([1]; 10 mg/kg i.v., n=4, observation time 15 min): 1; number of experimental animals matching Score 0.5 ([1]; 10 mg/kg i.v., n=4, observation time 30 min): 1; Emax ([10]; read-out: β1 receptor I.A.): 7%; Emax ([11]; HEK293, read-out: α1A receptor I.A.): 0%
